Source: US20240409542A1, “NOVEL COMPOUNDS” (Sitryx Therapeutics Limited, priority 2021, published 2024)
Converted amounts (≈) assume the structure as drawn.

What was measured:
recombinant human PKM2 = recombinant human PKM2 (Homo sapiens (Human), UniProt P14618); assay: Human PKM2 activation assay (Kinase-Glo Plus luminescence); format: biochemical; details: for EC50: activation of recombinant human PKM2, 4-parameter logistic fit, read-out: hPKM2 EC50; for Emax: read-out: hPKM2 Emax (%)
Protocol: Compound activation of recombinant human PKM2 pyruvate kinase activity was determined by biochemical assay. N-terminal His-tagged hPKM2 was sourced from R&D Systems and its substrates phosphoenolpyruvate (PEP) and ADP from Sigma-Aldrich and 2BScientific Ltd, respectively. The Kinase-Glo® Plus luminescence assay was from Promega. All other reagents were from Sigma-Aldrich. Test Compounds were prepared as 10 mM DMSO stocks and dilution series prepared in DMSO for direct dilution into Assay Buffer comprising 50 mM imidazole, 50 mM KCl, 7 mM MgCl2, 0.01% Tween20, 0.05% BSA (pH 7.2).
Human PKM2 was diluted into Assay Buffer comprising 50 mM imidazole, 50 mM KCl, 7 mM MgCl2, 0.01% Tween20, 0.05% BSA (pH 7.2) to a final concentration of 5 pM. Enzyme-Assay Buffer mix was dispensed into a 384-well shallow-well white-walled plate (PerkinElmer) and Test Compounds added by acoustic dispense (Echo®, Labcyte Inc.).
After 60 minutes' incubation on an orbital shaker (300 rpm, 26° C.), enzyme activity was quantified by the luminescent detection of generated ATP. Kinase-Glo® Plus reagent was added to each well and the plates incubated for a further 15 minutes on an orbital shaker in the dark (300 rpm, 26° C.) before luminescence measurement on a plate reader (PHERAstar® FSX, BMG Labtech).
EC50 and Emax values were determined from 4-parameter logistic fits of compound concentration-response curves.

[1] = Kinetic aqueous solubility; details: kinetic from dmso stock, Kinetic solubility (Ksol), (μg/ml), PBS pH 7.4, 200 μM (2% DMSO), RT
Protocol: Phosphate buffered saline (PBS) pH 7.4 was prepared using PBS tablets as per the manufacturer's instructions. Compounds and marker stocks are prepared at 10 mM in DMSO.
Compounds were incubated at 200 μM (2% DMSO) in Millipore—MSS LB PC 10 or Porvair—ref: 36004 plates in the presence of the prepared PBS pH 7.4 solution for 1.5 h, at RT, with gentle shaking. […] The samples were then analysed in a 96 well UV Star analysis plate on a plate reader from 220 nm to 500 nm at 10 nm increments.
The concentration of the samples was calculated against the standard curves.

[2] = phosphate buffered saline (PBS) pH 7.4, pH 7.4, aqueous buffer

recombinant human PKM2, sequence (P14618 whole entry): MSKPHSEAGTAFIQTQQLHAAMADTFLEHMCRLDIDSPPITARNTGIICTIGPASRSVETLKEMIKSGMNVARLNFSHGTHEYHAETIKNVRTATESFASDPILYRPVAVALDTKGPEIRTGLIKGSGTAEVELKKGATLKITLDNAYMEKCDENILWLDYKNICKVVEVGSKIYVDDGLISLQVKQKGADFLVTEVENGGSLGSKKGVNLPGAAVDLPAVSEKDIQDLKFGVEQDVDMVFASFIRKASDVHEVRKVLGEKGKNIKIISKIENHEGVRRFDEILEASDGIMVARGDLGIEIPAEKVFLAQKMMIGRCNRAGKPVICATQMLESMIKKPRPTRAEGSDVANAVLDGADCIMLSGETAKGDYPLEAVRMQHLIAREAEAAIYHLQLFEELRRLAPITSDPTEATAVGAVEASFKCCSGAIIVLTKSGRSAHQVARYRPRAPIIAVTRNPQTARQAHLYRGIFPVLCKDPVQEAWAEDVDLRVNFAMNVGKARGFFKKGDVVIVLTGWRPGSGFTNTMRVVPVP

Structure (SMILES) | EC50 (recombinant human PKM2) | Emax (recombinant human PKM2) | solubility kinetic at 1.5 h [1, 2] | solubility kinetic at 1.5 h ([1]; phosphate buffered saline, pH 7.4, aqueous buffer)
Cn1c2c(c3cnn(Cc4ccsc4C(N)=O)c(=O)c31)CCN(S(C)(=O)=O)C2 [Example 14, 3-((5-methyl-7-(methylsulfonyl)-4-oxo-4,5,6,7,8,9-hexahydro-3H-pyrido [4′,3′:4,5]pyrrolo[2,3-d]pyridazin-3-yl)methyl)thiophene-2-carboxamide] | 512 nM | 102% | 41.3 µg/mL (≈ 98.1 µM) | –
Cn1c2c(c3cnn(Cc4c[nH]c5ccccc45)c(=O)c31)CCN(S(C)(=O)=O)C2 [Example 15, 3-((1H-indol-3-yl)methyl)-5-methyl-7-(methylsulfonyl)-3,5,6,7,8,9-hexahydro-4H-pyrido[4′,3′:4,5]pyrrolo[2,3-d]pyridazin-4-one] | 99 nM | 99.9% | 2.49 µg/mL (≈ 6.05 µM) | –
Cn1c2c(c3cnn(Cc4coc5ccccc45)c(=O)c31)CCN(S(C)(=O)=O)C2 [Example 16, 3-(benzofuran-3-ylmethyl)-5-methyl-7-(methylsulfonyl)-3,5,6,7,8,9-hexahydro-4H-pyrido[4′,3′:4,5]pyrrolo[2,3-d]pyridazin-4-one] | 129 nM | 76.6% | 7.58 µg/mL (≈ 18.4 µM) | –
COc1ccc(S(=O)(=O)N2CCc3c(n(C)c4c(=O)n(Cc5ccsc5C(N)=O)ncc34)C2)cc1 [Example 22, 3-((7-((4-methoxyphenyl)sulfonyl)-5-methyl-4-oxo-4,5,6,7,8,9-hexahydro-3H-pyrido[4′,3′:4,5]pyrrolo[2,3-d]pyridazin-3-yl)methyl)thiophene-2-carboxamide] | 385 nM | 76.8% | 2.53 µg/mL (≈ 4.93 µM) | –
Cn1c2c(c3cnn(Cc4ccc5c(c4)CC(C)(C)O5)c(=O)c31)CCN(S(C)(=O)=O)C2 [Example 24, 3-((2,2-dimethyl-2,3-dihydrobenzofuran-5-yl)methyl)-5-methyl-7-(methylsulfonyl)-3,5,6,7,8,9-hexahydro-4H-pyrido[4′,3′:4,5]pyrrolo[2,3-d]pyridazin-4-one] | 188 nM | 90.9% | – | –
Cn1c2c(c3cnn(Cc4ccc5cc[nH]c5n4)c(=O)c31)CCN(S(C)(=O)=O)C2 [Example 25, 3-((1H-pyrrolo[2,3-b]pyridin-6-yl)methyl)-5-methyl-7-(methylsulfonyl)-3,5,6,7,8,9-hexahydro-4H-pyrido[4′,3′:4,5]pyrrolo[2,3-d]pyridazin-4-one] | 342 nM | 99.5% | 3.94 µg/mL (≈ 9.55 µM) | –
C[C@H](N)c1cccc(Cn2ncc3c4c(n(C)c3c2=O)CN(S(C)(=O)=O)CC4)c1 [Example 26, (S)-3-(3-(1-aminoethyl)benzyl)-5-methyl-7-(methylsulfonyl)-3,5,6,7,8,9-hexahydro-4H-pyrido[4′,3′:4,5]pyrrolo[2,3-d]pyridazin-4-one] | 372 nM | 81.1% | > 83 µg/mL | –
COCCS(=O)(=O)N1CCc2c(n(C)c3c(=O)n(Cc4ccc(OC)nc4)ncc23)C1 [Example 27, 7-((2-methoxyethyl)sulfonyl)-3-((6-methoxypyridin-3-yl)methyl)-5-methyl-3,5,6,7,8,9-hexahydro-4H-pyrido[4′,3′:4,5]pyrrolo[2,3-d]pyridazin-4-one] | 919 nM | 78% | – | –
Cn1c2c(c3cnn(Cc4cccc(C(C)(C)O)c4)c(=O)c31)CCN(S(C)(=O)=O)C2 [Example 33, 3-(3-(2-hydroxypropan-2-yl)benzyl)-5-methyl-7-(methylsulfonyl)-3,5,6,7,8,9-hexahydro-4H-pyrido[4′,3′:4,5]pyrrolo[2,3-d]pyridazin-4-one] | – | 96.5% | 19.8 µg/mL (≈ 46 µM) | –

More lines, now with the values ahead:

EC50 (recombinant human PKM2) | Emax (recombinant human PKM2) | solubility kinetic at 1.5 h [1, 2] | solubility kinetic at 1.5 h ([1]; phosphate buffered saline, pH 7.4, aqueous buffer) | Structure (SMILES)
702 nM | 88.5% | 38 µg/mL (≈ 92.9 µM) | – | Cn1c2c(c3cnn(Cc4ccsc4CO)c(=O)c31)CCN(S(C)(=O)=O)C2 [Example 13, 3-((2-(hydroxymethyl)thiophen-3-yl)methyl)-5-methyl-7-(methylsulfonyl)-3,5,6,7,8,9-hexahydro-4H-pyrido[4′,3′:4,5]pyrrolo[2,3-d]pyridazin-4-one]
901 nM | 98.8% | 73.1 µg/mL (≈ 180 µM) | – | Cn1c2c(c3cnn(Cc4n[nH]cc4C(N)=O)c(=O)c31)CCN(S(C)(=O)=O)C2 [Example 17, 3-((5-methyl-7-(methylsulfonyl)-4-oxo-4,5,6,7,8,9-hexahydro-3H-pyrido [4′,3′:4,5]pyrrolo[2,3-d]pyridazin-3-yl)methyl)-1H-pyrazole-4-carboxamide]
394 nM | 58.7% | 18.3 µg/mL (≈ 40.5 µM) | – | Cn1c2c(c3cnn(Cc4cccc(S(N)(=O)=O)c4)c(=O)c31)CCN(S(C)(=O)=O)C2 [Example 18, 3-((5-methyl-7-(methylsulfonyl)-4-oxo-4,5,6,7,8,9-hexahydro-3H-pyrido [4′,3′:4,5]pyrrolo[2,3-d]pyridazin-3-yl)methyl)benzenesulfonamide]
869 nM | 63.8% | 5.42 µg/mL (≈ 12.2 µM) | – | Cn1c2c(c3cnn(Cc4cccc(N5CCCC5)n4)c(=O)c31)CCN(S(C)(=O)=O)C2 [Example 19, 5-methyl-7-(methylsulfonyl)-3-((6-(pyrrolidin-1-yl)pyridin-2-yl)methyl)-3,5,6,7,8,9-hexahydro-4H-pyrido[4′,3′:4,5]pyrrolo[2,3-d]pyridazin-4-one]
272 nM | 111% | 8.43 µg/mL (≈ 20.4 µM) | – | Cn1c2c(c3cnn(Cc4n[nH]c5ccccc45)c(=O)c31)CCN(S(C)(=O)=O)C2 [Example 20, 3-((1H-indazol-3-yl)methyl)-5-methyl-7-(methylsulfonyl)-3,5,6,7,8,9-hexahydro-4H-pyrido[4′,3′:4,5]pyrrolo[2,3-d]pyridazin-4-one]
986 nM | 71.4% | 1.04 µg/mL (≈ 2.16 µM) | – | COc1ccc(Cn2ncc3c4c(n(C)c3c2=O)CN(S(=O)(=O)c2ccccc2)CC4)c(F)c1 [Example 21, 3-(2-fluoro-4-methoxybenzyl)-5-methyl-7-(phenylsulfonyl)-3,5,6,7,8,9-hexahydro-4H-pyrido[4′,3′:4,5]pyrrolo[2,3-d]pyridazin-4-one]
313 nM | 58.3% | – | – | COc1ccc(S(=O)(=O)N2CCc3c(n(C)c4c(=O)n(Cc5ccc6c(c5)CCO6)ncc34)C2)cc1 [Example 23, 3-((2,3-dihydrobenzofuran-5-yl)methyl)-7-((4-methoxyphenyl)sulfonyl)-5-methyl-3,5,6,7,8,9-hexahydro-4H-pyrido[4′,3′:4,5]pyrrolo[2,3-d]pyridazin-4-one]
385 nM | 56.4% | > 92.5 µg/mL | – | COCCNS(=O)(=O)N1CCc2c(n(C)c3c(=O)n(Cc4ccc(OC)nc4)ncc23)C1 [Example 28, N-(2-methoxyethyl)-3-((6-methoxypyridin-3-yl)methyl)-5-methyl-4-oxo-3,4,5,6,8,9-hexahydro-7H-pyrido[4′,3′:4,5]pyrrolo[2,3-d]pyridazine-7-sulfonamide]
280 nM | 89% | – | 37.5 µg/mL (≈ 82 µM) | COCCS(=O)(=O)N1CCc2c(n(C)c3c(=O)n(Cc4c[nH]c5cnccc45)ncc23)C1 [Example 29, 3-((1H-pyrrolo[2,3-c]pyridin-3-yl)methyl)-7-((2-methoxyethyl)sulfonyl)-5-methyl-6,7,8,9-tetrahydro-3H-pyrido[4′,3′:4,5]pyrrolo[2,3-d]pyridazin-4(5H)-one]
423 nM | 75.3% | 18.8 µg/mL (≈ 41.8 µM) | – | Cn1c2c(c3cnn(Cc4cccc(S(C)(=O)=O)c4)c(=O)c31)CCN(S(C)(=O)=O)C2 [Example 31, 5-methyl-7-(methylsulfonyl)-3-(3-(methylsulfonyl)benzyl)-3,5,6,7,8,9-hexahydro-4H-pyrido[4′,3′:4,5]pyrrolo[2,3-d]pyridazin-4-one]
365 nM | 94.6% | 16.2 µg/mL (≈ 39.2 µM) | – | Cn1c2c(c3cnn(Cc4cccc5[nH]ncc45)c(=O)c31)CCN(S(C)(=O)=O)C2 [Example 32, 3-((1H-indazol-4-yl)methyl)-5-methyl-7-(methylsulfonyl)-3,5,6,7,8,9-hexahydro-4H-pyrido[4′,3′:4,5]pyrrolo[2,3-d]pyridazin-4-one]
569 nM | 78.1% | – | – | COc1ccc(S(=O)(=O)N2CCc3c(n(C)c4c(=O)n(Cc5c[nH]c6cnccc56)ncc34)C2)cc1 [Example 35, 3-((1H-pyrrolo[2,3-c]pyridin-3-yl)methyl)-7-((4-methoxyphenyl)sulfonyl)-5-methyl-3,5,6,7,8,9-hexahydro-4H-pyrido[4′,3′:4,5]pyrrolo[2,3-d]pyridazin-4-one]
759 nM | 93.2% | – | – | Cn1c2c(c3cnn(Cc4c[nH]c5ccc(F)cc45)c(=O)c31)CCN(S(C)(=O)=O)C2 [Example 38, 3-((5-fluoro-1H-indol-3-yl)methyl)-5-methyl-7-(methylsulfonyl)-6,7,8,9-tetrahydro-3H-pyrido[4′,3′:4,5]pyrrolo[2,3-d]pyridazin-4(5H)-one]
